Test results reported in patent publication US8936806B2, “Periostin induces proliferation of cardiomyocytes and promotes cardiac regeneration” (Children's Medical Center Corporation, priority 2007, dated 2015).
Values belong to the compound of their own block, whether it stands above or below them.

Tests used:
[1] = system: atrial natriuretic factor (ANF); assay: Transcription of atrial natriuretic factor by RT-PCR in neonatal cardiomyocytes; assay type: cell-based, rat; conditions: 72 hr stimulation
Procedure: RNA was prepared using Trizol reagent (Invitrogen) from neonatal rat ventricular cardiomyocytes after 72 hr of stimulation. Complementary DNA was synthesized from 2 μg RNA with the SuperScriptIII kit (Invitrogen) using oligo-dT primers. One μL cDNA was used as template for 20 μL PCR-reactions (95° C. for 2 min, 30 cycles of 95° C. for 2 min, 55° C. for 2 min, 72° C. for 5 min, followed by 72° C. for 10 min). Oligonucleotide primers used for detection of ANF were F: 5′-[…]-3′ (Seq ID No. 2), R: 5′-[…]-3′ (Seq ID No. 3), β-actin were F: 5′-[…]-3′ (Seq ID No. 4), R: 5′-[…]-3′ (Seq ID No. 5), […] were F: 5′-[…]-3′ (Seq ID No. 6), R: 5′-[…]-3′ (Seq ID No. 7); SMA were F: 5′-[…]-3′ (Seq ID No. 8), R: 5′-[…]-3′ (Seq ID No. 9); SERCA2 were F: 5′-[…]-3′ (Seq ID No. 10), R: 5′-[…]-3′ (Seq ID No. 11), and for GAPDH: 5′-[…]-3′ (Seq ID No. 12), R: 5′-[…]-3′ (Seq ID No. 13).

[2] = system: primary adult rat ventricular cardiomyocytes; assay: Cytokinesis (aurora B kinase) in primary adult rat ventricular cardiomyocytes; assay type: cell-based; conditions: 9 days stimulation
Text: (§1) Primary neonatal rat ventricular cardiomyocytes were isolated using the Neomyts kit (Cellutron, Highland Park, N.J.), seeded at a density of 10^5 cells/cm^2 onto gelatin-coated cover slips, stimulated for 3 days, and labeled with BrdU for the terminal 2 days. Primary adult ventricular cardiomyocytes were isolated from male (300 gm) Wistar rats (Charles River Laboratories) and maintained as described (Engel, F. B. et al. p38 MAP kinase inhibition enables proliferation of adult mammalian cardiomyocytes. Genes Dev 19, 1175-87 (2005)). Adult cardiomyocytes were stimulated daily for 9 days and labeled with 30 μM BrdU for the terminal 3 days. Cardiomyocytes were stimulated with periostin (500 ng/mL) and FGF (100 ng/mL). Inhibiting antibodies were added at a concentration of 10 μg/mL, cRGD at 10 μM, U0126 at 10 μM, PD98059 at 1 μM, LY294002 at 10 μM, and Wortmannin at 0.1 μM 30 min prior to stimulation. The vehicle used to dissolve factors or chemicals was added to unstimulated samples, which were then processed together with the test samples.
(§2) DNA-synthesis was analyzed by visualization of BrdU uptake and cytokinesis was determined by detection of the cleavage furrow and the midbody with an antibody against aurora B kinase as described (Engel, F. B. et al. p38 MAP kinase inhibition enables proliferation of adult mammalian cardiomyocytes. Genes Dev 19, 1175-87 (2005)). Signals were visualized with secondary antibodies conjugated to Alexa 488, Alexa 546, Alexa 594, and Alexa 647 (Invitrogen). Nuclei were visualized with 4′,6′-diamidino-2-phenylindole (DAPI, Invitrogen). For image acquisition, the value for γ was set at 1 and the lookup table settings were linear.

[3] = system: primary adult rat ventricular cardiomyocytes; assay: DNA synthesis (BrdU uptake, immunofluorescence) in primary adult rat ventricular cardiomyocytes; assay type: cell-based
Text: Primary neonatal rat ventricular cardiomyocytes were isolated using the Neomyts kit (Cellutron, Highland Park, N.J.), seeded at a density of 10^5 cells/cm^2 onto gelatin-coated cover slips, stimulated for 3 days, and labeled with BrdU for the terminal 2 days. Primary adult ventricular cardiomyocytes were isolated from male (300 gm) Wistar rats (Charles River Laboratories) and maintained as described (Engel, F. B. et al. p38 MAP kinase inhibition enables proliferation of adult mammalian cardiomyocytes. Genes Dev 19, 1175-87 (2005)). Adult cardiomyocytes were stimulated daily for 9 days and labeled with 30 μM BrdU for the terminal 3 days. Cardiomyocytes were stimulated with periostin (500 ng/mL) and FGF (100 ng/mL). […] The vehicle used to dissolve factors or chemicals was added to unstimulated samples, which were then processed together with the test samples. DNA-synthesis was analyzed by visualization of BrdU uptake and cytokinesis was determined by detection of the cleavage furrow and the midbody with an antibody against aurora B kinase as described (Engel, F. B. et al. p38 MAP kinase inhibition enables proliferation of adult mammalian cardiomyocytes. Genes Dev 19, 1175-87 (2005)). Signals were visualized with secondary antibodies conjugated to Alexa 488, Alexa 546, Alexa 594, and Alexa 647 (Invitrogen). […] For image acquisition, the value for γ was set at 1 and the lookup table settings were linear. Primary adult rat ventricular cardiomyocytes were grown on gridded cover slips (Electron Microscopy Services, Ft. Washington, Pa.) and imaged in phase contrast at 10× magnification. Cardiomyocytes were transduced with an adenovirus leading to nuclear expression of histone2B-GFP (Shi, Q. & King, R. W. Nature 437, 1038-42 (2005)) under control of the chicken troponin T promoter ([…]. Am J Physiol Cell Physiol 286, […]-64 (2004)). Nuclei were visualized at 10× magnification with a mercury-arc lamp dimmed to 1.5% with a neutral density filter. […] Images of BrdU-positive cardiomyocytes were matched with the corresponding images from before stimulation. For quantification, differentiated cardiomyocytes were defined as striated rod-shaped structures with length/width ratio>1.5.

[4] = system: primary neonatal rat ventricular cardiomyocytes; assay: DNA synthesis, mitosis and cytokinesis in primary neonatal rat ventricular cardiomyocytes; assay type: cell-based; conditions: periostin plus FGF
Text: as §1, §2

[5] = system: adult ventricular cardiomyocytes; assay: Transcription of fetal gene program (RT-PCR) in adult ventricular cardiomyocytes; assay type: cell-based, rat
[6] = system: differentiated cardiomyocytes; assay: Hypertrophy by [3H]leucine uptake; assay type: cell-based, rat; conditions: phenylephrine 10 mM [sic]; all time points tested
Text: Induction of the fetal gene program is accompanied by increased protein synthesis leading to cardiomyocyte hypertrophy. We assessed cardiomyocyte hypertrophy by measuring uptake of [^3H]leucine.

cytokinesis, of all differentiated cardiomyocytes [2]: 0.3±0.1%
Compound: FGF: FGF1 provided by R&D Systems; known stimulus of cardiomyocyte DNA synthesis
transcription of atrial natriuretic factor (ANF) [1]: induced
cardiomyocyte DNA synthesis ([3]; 9 days stimulation (periostin 500 ng/mL, FGF 100 ng/mL), BrdU terminal 3 days): 1.3±0.6%
effect on periostin-induced cardiomyocyte DNA synthesis when added ([3]; FGF 100 ng/ml, SB203580 5 mM or 10 mM as printed): increased
effect of co-stimulation with periostin on DNA synthesis [4]: additive effect

Compound: CNC[C@H](O)c1cccc(O)c1 [phenylephrine, reference compound]
transcription of atrial natriuretic factor (ANF) [1]: induced
transcription of SERCA2 [5]: slightly reduced
transcription of β-MHC, SMA and ANF [5]: increased transcription
[3H]leucine uptake (hypertrophy) [6]: induced
